Measurements from ChEMBL document CHEMBL4715913, “Discovery of benzo[f]pyrido[4,3-b][1,4]oxazepin-10-one derivatives as orally available bromodomain and extra-terminal domain (BET) inhibitors with efficacy in an in vivo psoriatic animal model” (Bioorg Med Chem, 2021).
The source made the active and inactive calls. The rule behind the calls is not given here.

Key:
[1] = biological target: T1, Bromodomain-containing protein 4 (Homo sapiens, UniProt O60885); assay: Inhibition of BRD4-BD1 (unknown origin) by TR-FRET assay
[2] = biological target: T1, Bromodomain-containing protein 4; assay: Inhibition of BRD4 in human PBMC assessed as reduction in LPS-induced TNFalpha secretion preincubated for 1 hr followed by LPS-stimulation and measured after 20 hrs by magnetic beads technique based assay
[3] = biological target: T2, Mitogen-activated protein kinase 7 (Homo sapiens, UniProt Q13164); assay: Inhibition of recombinant human ERK5 using myelin basic protein as substrate by [gamm33P]ATP based HotSpot radiometric assay
T2 sequence (Q13164 whole entry): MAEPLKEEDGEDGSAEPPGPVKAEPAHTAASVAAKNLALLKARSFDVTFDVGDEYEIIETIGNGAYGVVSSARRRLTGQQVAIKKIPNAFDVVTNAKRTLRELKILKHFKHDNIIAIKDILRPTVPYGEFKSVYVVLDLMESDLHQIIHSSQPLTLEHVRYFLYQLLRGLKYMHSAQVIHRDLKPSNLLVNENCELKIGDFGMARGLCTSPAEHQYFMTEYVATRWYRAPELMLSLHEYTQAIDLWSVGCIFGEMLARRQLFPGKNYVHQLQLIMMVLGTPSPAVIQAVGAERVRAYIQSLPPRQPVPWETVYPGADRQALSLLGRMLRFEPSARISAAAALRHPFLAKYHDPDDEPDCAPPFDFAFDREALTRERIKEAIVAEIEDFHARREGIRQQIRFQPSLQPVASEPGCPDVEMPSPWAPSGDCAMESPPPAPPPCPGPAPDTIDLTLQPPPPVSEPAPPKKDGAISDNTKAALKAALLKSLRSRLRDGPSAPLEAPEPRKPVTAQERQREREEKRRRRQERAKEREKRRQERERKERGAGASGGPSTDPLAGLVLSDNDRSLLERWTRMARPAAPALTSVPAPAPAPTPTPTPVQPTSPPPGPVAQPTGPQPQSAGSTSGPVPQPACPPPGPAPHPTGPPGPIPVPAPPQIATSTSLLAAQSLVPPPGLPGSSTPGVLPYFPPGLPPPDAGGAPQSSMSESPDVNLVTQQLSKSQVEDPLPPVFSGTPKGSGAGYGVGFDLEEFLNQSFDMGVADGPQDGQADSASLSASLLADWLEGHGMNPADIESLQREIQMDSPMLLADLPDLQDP

[4] = Stability of compound in human liver microsomes assessed as parent compound remaining after 1 hr
[5] = biological target: T3, Voltage-gated inwardly rectifying potassium channel KCNH2 (Homo sapiens, UniProt Q12809); assay: Inhibition of human ERG stably expressed in CHO cells at holding potential of -80 mV incubated for 12 mins
T3 sequence (Q12809 whole entry): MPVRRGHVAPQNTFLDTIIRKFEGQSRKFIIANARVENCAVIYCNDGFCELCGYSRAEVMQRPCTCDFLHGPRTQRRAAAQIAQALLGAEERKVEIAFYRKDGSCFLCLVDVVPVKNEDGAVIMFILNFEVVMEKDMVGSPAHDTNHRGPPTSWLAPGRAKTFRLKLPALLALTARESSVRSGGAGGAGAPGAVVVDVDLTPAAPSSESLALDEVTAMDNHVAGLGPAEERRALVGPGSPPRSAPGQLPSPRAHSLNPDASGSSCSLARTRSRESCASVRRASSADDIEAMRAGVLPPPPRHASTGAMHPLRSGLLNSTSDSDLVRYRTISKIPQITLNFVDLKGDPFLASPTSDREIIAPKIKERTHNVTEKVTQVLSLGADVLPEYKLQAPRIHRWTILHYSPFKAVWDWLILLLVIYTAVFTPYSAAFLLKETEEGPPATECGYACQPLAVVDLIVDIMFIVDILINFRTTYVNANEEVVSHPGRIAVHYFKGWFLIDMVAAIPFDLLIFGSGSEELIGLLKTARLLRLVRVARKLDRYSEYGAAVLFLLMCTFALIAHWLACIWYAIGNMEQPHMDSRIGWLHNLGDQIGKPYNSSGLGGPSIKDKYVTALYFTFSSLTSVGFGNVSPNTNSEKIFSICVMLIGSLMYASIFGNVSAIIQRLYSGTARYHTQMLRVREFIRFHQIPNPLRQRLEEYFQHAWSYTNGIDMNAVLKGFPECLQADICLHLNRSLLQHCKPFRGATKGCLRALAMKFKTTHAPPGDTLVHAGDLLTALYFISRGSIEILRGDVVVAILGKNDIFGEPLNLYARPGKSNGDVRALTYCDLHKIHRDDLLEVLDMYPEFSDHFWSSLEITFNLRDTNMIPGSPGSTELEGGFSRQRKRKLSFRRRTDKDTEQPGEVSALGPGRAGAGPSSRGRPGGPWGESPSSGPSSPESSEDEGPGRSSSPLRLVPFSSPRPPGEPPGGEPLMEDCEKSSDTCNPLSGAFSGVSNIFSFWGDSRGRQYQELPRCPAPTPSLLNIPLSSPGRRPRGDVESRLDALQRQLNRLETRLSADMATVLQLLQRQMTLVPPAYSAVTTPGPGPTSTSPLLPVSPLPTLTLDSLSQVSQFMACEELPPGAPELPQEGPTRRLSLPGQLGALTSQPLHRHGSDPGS

PBMC [6] = assay: Inhibition of IL-6 production in LPS-induced human PBMC preincubated for 1 hr followed by LPS-stimulation and measured after 20 hrs by magnetic beads technique based assay; type: functional, tissue-based; settings: time 21.0 hrs
PBMC [7] = assay: Inhibition of MCP-1 production in LPS-induced human PBMC preincubated for 1 hr followed by LPS-stimulation and measured after 20 hrs by magnetic beads technique based assay; type: functional, tissue-based; settings: time 21.0 hrs
[8] = biological target: T4, Bromodomain-containing protein 2 (Homo sapiens, UniProt P25440); assay: Binding affinity to human partial length BRD2-BD1 (K71 to N194 residues) expressed in bacterial expression system by BROMOscan method
T4 sequence (P25440 whole entry, the tested form may be a part): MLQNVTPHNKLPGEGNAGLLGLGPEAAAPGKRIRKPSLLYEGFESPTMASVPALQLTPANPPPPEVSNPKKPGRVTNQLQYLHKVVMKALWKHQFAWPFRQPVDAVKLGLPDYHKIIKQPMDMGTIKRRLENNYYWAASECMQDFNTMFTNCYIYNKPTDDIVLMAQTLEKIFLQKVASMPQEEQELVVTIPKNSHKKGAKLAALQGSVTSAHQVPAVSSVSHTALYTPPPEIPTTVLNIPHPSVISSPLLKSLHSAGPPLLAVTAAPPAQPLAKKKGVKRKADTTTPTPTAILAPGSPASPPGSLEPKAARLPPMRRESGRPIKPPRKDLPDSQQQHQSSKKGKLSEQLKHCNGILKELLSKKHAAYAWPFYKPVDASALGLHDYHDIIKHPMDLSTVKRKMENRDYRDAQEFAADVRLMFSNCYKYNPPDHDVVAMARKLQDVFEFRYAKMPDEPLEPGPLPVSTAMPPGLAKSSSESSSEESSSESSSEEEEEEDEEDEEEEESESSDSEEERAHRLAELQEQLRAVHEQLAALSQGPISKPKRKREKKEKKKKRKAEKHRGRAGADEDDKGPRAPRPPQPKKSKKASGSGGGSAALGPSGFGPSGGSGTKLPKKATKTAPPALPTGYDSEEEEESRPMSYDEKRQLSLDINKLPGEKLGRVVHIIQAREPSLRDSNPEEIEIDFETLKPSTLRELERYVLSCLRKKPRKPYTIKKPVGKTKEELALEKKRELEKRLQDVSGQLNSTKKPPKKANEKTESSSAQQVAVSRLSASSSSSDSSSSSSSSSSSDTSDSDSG

[9] = biological target: T5, Bromodomain-containing protein 3 (Homo sapiens, UniProt Q15059); assay: Binding affinity to human partial length BRD3-BD1 (P24 to E144 residues) expressed in bacterial expression system by BROMOscan method
T5 sequence (Q15059 whole entry, the tested form may be a part): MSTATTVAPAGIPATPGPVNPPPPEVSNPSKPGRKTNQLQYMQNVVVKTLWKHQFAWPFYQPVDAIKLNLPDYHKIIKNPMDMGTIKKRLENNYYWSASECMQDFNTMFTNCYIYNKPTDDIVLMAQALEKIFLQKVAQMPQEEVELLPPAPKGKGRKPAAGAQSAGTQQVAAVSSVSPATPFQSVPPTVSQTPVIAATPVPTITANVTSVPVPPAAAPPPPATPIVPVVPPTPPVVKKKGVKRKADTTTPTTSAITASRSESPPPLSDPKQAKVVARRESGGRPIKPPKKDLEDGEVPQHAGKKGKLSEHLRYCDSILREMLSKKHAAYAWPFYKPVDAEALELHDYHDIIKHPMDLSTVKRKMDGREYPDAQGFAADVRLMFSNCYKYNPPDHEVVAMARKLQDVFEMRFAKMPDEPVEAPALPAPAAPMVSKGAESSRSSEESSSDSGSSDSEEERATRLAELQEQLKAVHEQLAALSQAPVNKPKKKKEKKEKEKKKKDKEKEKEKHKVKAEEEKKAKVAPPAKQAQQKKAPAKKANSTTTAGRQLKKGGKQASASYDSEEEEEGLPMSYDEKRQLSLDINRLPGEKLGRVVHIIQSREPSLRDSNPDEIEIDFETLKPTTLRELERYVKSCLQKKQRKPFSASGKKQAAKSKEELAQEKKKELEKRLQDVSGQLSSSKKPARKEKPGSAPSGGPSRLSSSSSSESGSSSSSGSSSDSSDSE

[10] = biological target: T4, Bromodomain-containing protein 2; assay: Binding affinity to human partial length BRD2-BD2 (E348 to D455 residues) expressed in bacterial expression system by BROMOscan method
[11] = biological target: T5, Bromodomain-containing protein 3; assay: Binding affinity to human partial length BRD3-BD2 (G306 to P416 residues) expressed in bacterial expression system by BROMOscan method
[12] = biological target: T1, Bromodomain-containing protein 4; assay: Binding affinity to human partial length BRD4-BD1 (N44 to E168 residues) expressed in bacterial expression system by BROMOscan method
[13] = biological target: T1, Bromodomain-containing protein 4; assay: Binding affinity to human partial length BRD4-BD2 (K333 to E460 residues) expressed in bacterial expression system by BROMOscan method
[14] = biological target: T6, Bromodomain testis-specific protein (Homo sapiens, UniProt Q58F21); assay: Binding affinity to human partial length BRDT-BD1 (N21 to E137 residues) expressed in bacterial expression system by BROMOscan method
[15] = biological target: T6, Bromodomain testis-specific protein; assay: Binding affinity to human partial length BRDT-BD2 (K250 to E382 residues) expressed in bacterial expression system by BROMOscan method
CREB-binding protein = CREB-binding protein (Homo sapiens, UniProt Q92793); assay: Binding affinity to human partial length CREBBP (R1081 to G1197 residues) expressed in bacterial expression system by BROMOscan method
[16] = biological target: Histone acetyltransferase p300 (Homo sapiens, UniProt Q09472); assay: Binding affinity to human partial length EP300 (A1040 to G1161 residues) expressed in bacterial expression system by BROMOscan method
Homo sapiens [17] = organism: Homo sapiens; assay: Selectivity ratio of Kd for binding affinity to human partial length CREBBP (R1081 to G1197 residues) expressed in bacterial expression system to Kd for binding affinity to human partial length BRD2-BD1 (K71 to N194 residues) expressed in bacterial expression system
Homo sapiens [18] = organism: Homo sapiens; assay: Selectivity ratio of Kd for binding affinity to human partial length EP300 (A1040 to G1161 residues) expressed in bacterial expression system to Kd for binding affinity to human partial length BRD2-BD1 (K71 to N194 residues) expressed in bacterial expression system
Homo sapiens [19] = organism: Homo sapiens; assay: Selectivity ratio of Kd for binding affinity to human partial length CREBBP (R1081 to G1197 residues) expressed in bacterial expression system to Kd for binding affinity to human partial length BRD2-BD2 (E348 to D455 residues) expressed in bacterial expression system
Homo sapiens [20] = organism: Homo sapiens; assay: Selectivity ratio of Kd for binding affinity to human partial length EP300 (A1040 to G1161 residues) expressed in bacterial expression system to Kd for binding affinity to human partial length BRD2-BD2 (E348 to D455 residues) expressed in bacterial expression system
Homo sapiens [21] = organism: Homo sapiens; assay: Selectivity ratio of Kd for binding affinity to human partial length CREBBP (R1081 to G1197 residues) expressed in bacterial expression system to Kd for binding affinity to human partial length BRD3-BD1 (P24 to E144 residues) expressed in bacterial expression system
Homo sapiens [22] = organism: Homo sapiens; assay: Selectivity ratio of Kd for binding affinity to human partial length EP300 (A1040 to G1161 residues) expressed in bacterial expression system to Kd for binding affinity to human partial length BRD3-BD1 (P24 to E144 residues) expressed in bacterial expression system
Homo sapiens [23] = organism: Homo sapiens; assay: Selectivity ratio of Kd for binding affinity to human partial length CREBBP (R1081 to G1197 residues) expressed in bacterial expression system to Kd for binding affinity to human partial length BRD3-BD2 (G306 to P416 residues) expressed in bacterial expression system
Homo sapiens [24] = organism: Homo sapiens; assay: Selectivity ratio of Kd for binding affinity to human partial length EP300 (A1040 to G1161 residues) expressed in bacterial expression system to Kd for binding affinity to human partial length BRD3-BD2 (G306 to P416 residues) expressed in bacterial expression system
Homo sapiens [25] = organism: Homo sapiens; assay: Selectivity ratio of Kd for binding affinity to human partial length CREBBP (R1081 to G1197 residues) expressed in bacterial expression system to Kd for binding affinity to human partial length BRD4-BD1 (N44 to E168 residues) expressed in bacterial expression system
Homo sapiens [26] = organism: Homo sapiens; assay: Selectivity ratio of Kd for binding affinity to human partial length EP300 (A1040 to G1161 residues) expressed in bacterial expression system to Kd for binding affinity to human partial length BRD4-BD1 (N44 to E168 residues) expressed in bacterial expression system
Homo sapiens [27] = organism: Homo sapiens; assay: Selectivity ratio of Kd for binding affinity to human partial length CREBBP (R1081 to G1197 residues) expressed in bacterial expression system to Kd for binding affinity to human partial length BRD4-BD2 (K333 to E460 residues) expressed in bacterial expression system
Homo sapiens [28] = organism: Homo sapiens; assay: Selectivity ratio of Kd for binding affinity to human partial length EP300 (A1040 to G1161 residues) expressed in bacterial expression system to Kd for binding affinity to human partial length BRD4-BD2 (K333 to E460 residues) expressed in bacterial expression system
Homo sapiens [29] = organism: Homo sapiens; assay: Selectivity ratio of Kd for binding affinity to human partial length CREBBP (R1081 to G1197 residues) expressed in bacterial expression system to Kd for binding affinity to human partial length BRDT-BD1 (N21 to E137 residues) expressed in bacterial expression system
Homo sapiens [30] = organism: Homo sapiens; assay: Selectivity ratio of Kd for binding affinity to human partial length EP300 (A1040 to G1161 residues) expressed in bacterial expression system to Kd for binding affinity to human partial length BRDT-BD1 (N21 to E137 residues) expressed in bacterial expression system
Homo sapiens [31] = organism: Homo sapiens; assay: Selectivity ratio of Kd for binding affinity to human partial length CREBBP (R1081 to G1197 residues) expressed in bacterial expression system to Kd for binding affinity to human partial length BRDT-BD2 (K250 to E382 residues) expressed in bacterial expression system
Homo sapiens [32] = organism: Homo sapiens; assay: Selectivity ratio of Kd for binding affinity to human partial length EP300 (A1040 to G1161 residues) expressed in bacterial expression system to Kd for binding affinity to human partial length BRDT-BD2 (K250 to E382 residues) expressed in bacterial expression system
Mus musculus [33] = assay: Protection against imiquimod-induced po dosed Harlan Balb/c mouse model of psoriasis assessed as decrease in ear thickness administered BID for 7 days measured on day 8 by dial gauge micrometer analysis; type: functional, organism-based; settings: dose 3-30 mg/kg, time 7.0 day
Mus musculus [34] = assay: Protection against imiquimod-induced Harlan Balb/c mouse model of psoriasis assessed as decrease in ear thickness at 10 mg/kg, po administered BID for 7 days measured on day 8 by dial gauge micrometer analysis; type: functional, organism-based; settings: time 7.0 day
[35] = Toxicity in imiquimod-induced Harlan Balb/c mouse model of psoriasis assessed as effect on body weight at 3 to 30 mg/kg, po BID for 7 days; type: organism-based; settings: in vivo, 168 h, dose 3-30 mg/kg, time 7 day
[36] = biological target: T1, Bromodomain-containing protein 4; assay: Binding affinity to BRD4-BD1 (unknown origin)
[37] = biological target: T2, Mitogen-activated protein kinase 7; assay: Inhibition of ERK5 (unknown origin)
[38] = biological target: T3, Voltage-gated inwardly rectifying potassium channel KCNH2; assay: Inhibition of human ERG
[39] = Dissociation constant, pKa of compound; type: physicochemical
[40] = Toxicity in imiquimod-induced Harlan Balb/c mouse model of psoriasis assessed as effect on body weight at 10 mg/kg, po BID for 7 days; type: organism-based; settings: in vivo, 168 h, time 7 day

`CN1C(=O)c2cccc(F)c2Oc2cc(N[C@H]3CC[C@H](O)CC3)ncc21` showed an IC50 [1] of 11200 nM, an EC50 [2] of 1720 nM and an IC50 [3] of 393 nM. For the same compound, the remaining at 1 h [4] was 114%, the IC50 [5] was over 10000 nM and the inhibition (PBMC [6]) was “Active”. For the same compound, the inhibition (PBMC [7]) was “Active”.

With `CN1C(=O)c2ccccc2S(=O)(=O)c2cc(N[C@H]3CC[C@H](O)CC3)ncc21` the IC50 [1] was over 30000 nM, the inhibition (PBMC [6]) was “Active” and the inhibition (PBMC [7]) was “Active”.

For `CN1C(=O)c2c(F)cccc2Oc2cc(N[C@H]3CC[C@H](O)CC3)ncc21`, the Kd [8] was 71 nM, the Kd [9] was 52 nM and the IC50 [1] was 1270 nM. The EC50 [2] was 440 nM, the IC50 [3] was 131 nM and the remaining at 1 h [4] was 100%. The IC50 [5] was over 10000 nM, the Kd [10] was 160 nM and the Kd [11] was 140 nM. For the same compound, the Kd [12] was 78 nM, the Kd [13] was 72 nM and the Kd [14] was 170 nM. The Kd [15] was 220 nM, the Kd (CREB-binding protein) was 1900 nM and the Kd [16] was 1200 nM. The inhibition (PBMC [6]) was “Active”, the inhibition (PBMC [7]) was “Active” and the Selectivity ratio (Homo sapiens [17]) was 20. The Selectivity ratio (Homo sapiens [18]) was 20, the Selectivity ratio (Homo sapiens [19]) was 20 and the Selectivity ratio (Homo sapiens [20]) was 20. The Selectivity ratio (Homo sapiens [21]) was 20, the Selectivity ratio (Homo sapiens [22]) was 20 and the Selectivity ratio (Homo sapiens [23]) was 20. It also gave a Selectivity ratio (Homo sapiens [24]) of 20, a Selectivity ratio (Homo sapiens [25]) of 20 and a Selectivity ratio (Homo sapiens [26]) of 20. For the same compound, the Selectivity ratio (Homo sapiens [27]) was 20, the Selectivity ratio (Homo sapiens [28]) was 20 and the Selectivity ratio (Homo sapiens [29]) was 20. It also gave a Selectivity ratio (Homo sapiens [30]) of 20, a Selectivity ratio (Homo sapiens [31]) of 20 and a Selectivity ratio (Homo sapiens [32]) of 20. The Activity (Mus musculus [33]) was “Dose-dependent effect”, the Activity (Mus musculus [34]) was “Active” and the Activity [35] was “Non-Toxic”.

Work on `CN1C(=O)c2ccccc2N(C)c2cc(N[C@H]3CC[C@H](O)CC3)ncc21` yielded a Kd [36] of 130 nM, an IC50 [37] of 89 nM and an IC50 [38] of over 10000 nM. The pKa [39] was 5.06, the IC50 [1] was 5990 nM and the EC50 [2] was 2110 nM. For the same compound, the IC50 [3] was 89 nM, the inhibition (PBMC [6]) was “Active” and the inhibition (PBMC [7]) was “Active”.

With `CN1C(=O)c2ccccc2Sc2cc(N[C@H]3CC[C@H](O)CC3)ncc21` the IC50 [1] was over 30000 nM, the inhibition (PBMC [6]) was “Active” and the inhibition (PBMC [7]) was “Active”.

Compound `COc1cccc2c1Oc1cc(N[C@H]3CC[C@H](O)CC3)ncc1N(C)C2=O` has an IC50 [1] of 2820 nM, an EC50 [2] of 1380 nM and an IC50 [3] of 1100 nM. The remaining at 1 h [4] was 85%, the IC50 [5] was over 10000 nM and the inhibition (PBMC [6]) was “Active”. The inhibition (PBMC [7]) was “Active”.

With `CCOc1cc([C@@H](CS(C)(=O)=O)N2C(=O)c3cccc(NC(C)=O)c3C2=O)ccc1OC` the Activity (Mus musculus [34]) was “Active” and the Activity [40] was “Non-Toxic”.
